Results taken from patent US8710198B2, “Caprazene as a novel compound and derivatives thereof, and caprazol as a novel compound and derivatives thereof” (Meiji Seika Pharma Co., Ltd., priority 2003, dated 2014).

Key:
Type in all cases: cell-based
Micrococcus luteus FDA16 = test: Minimum growth inhibitory concentration on agar culture medium by serial dilution method (Japanese Society of Chemotherapy)
Protocol: (§1) Minimum growth inhibitory concentrations (mcg/ml) of caprazene-1′″-amide derivatives of the formula (II) against some of microorganisms were measured on an agar culture medium by a serial dilution method according to the standard method as provided by Japanese Society of Chemotherapy. For the cultivation of Mycobacterium smegmatis (one of […]), however, there was used an agar culture medium with the addition of 1% glycerine (the same applies to in the following tests).
(§2) Minimum growth inhibitory concentrations (mcg/ml) of some of the caprazene-1′″-ester derivative of the formula (III) against some of microorganisms were measured on an agar culture medium by a serial dilution method according to the standard method as provided by Japanese Society of Chemotherapy.
(§3) Minimum growth inhibitory concentrations (mcg/ml) of some of the caprazol-1′″-amide derivative of the formula (V) against a variety of microorganisms were measured on an agar medium by a serial dilution method according to the standard method as provided by Japanese Society of Chemotherapy.
(§4) Minimum growth inhibitory concentrations (mcg/ml) of some of the caprazol-1′″-amide-3′″-ester derivative of the formula (VI) against a variety of microorganisms were measured on an agar medium by a serial dilution method according to the standard method as provided by Japanese Society of Chemotherapy.
(§5) Minimum growth inhibitory concentrations (mcg/ml) of some of the caprazol-3′″-ester derivative or caprazol-1′″-ester-3′″-ester derivative of the formula (VII) against a variety of microorganisms were measured on an agar medium by a serial dilution method according to the standard method as provided by Japanese Society of Chemotherapy.
(§6) Minimum growth inhibitory concentrations (mcg/ml) of some of the derivative of the formula (VIII) against a variety of microorganisms were measured on an agar medium by a serial dilution method according to the standard method as provided by Japanese Society of Chemotherapy.

[1] = system: Staphylococcus aureus FDA209P; test: as above
Protocol: as §1, §2, §3, §4, §5, §6

[2] = system: Mycobacterium smegmatis ATCC607; test: Minimum growth inhibitory concentration on agar culture medium with 1% glycerine by serial dilution method; settings: agar culture medium with the addition of 1% glycerine
Protocol: as §1, §2, §3, §4, §5

| SMILES | Minimum growth inhibitory concentration (mcg/ml) against bacteria Micrococcus luteus FDA16 (Micrococcus luteus FDA16) | Minimum growth inhibitory concentration (mcg/ml) against bacteria Staphylococcus aureus FDA209P [1] | Minimum growth inhibitory concentration (mcg/ml) against bacteria Mycobacterium smegmatis ATCC607 [2] |
| --- | --- | --- | --- |
| CCCc1ccc(NC(=O)C2=CCN(C)C(C(OC3OC(CN)C(O)C3O)C3OC(n4ccc(=O)[nH]c4=O)C(O)C3O)C(=O)N2C)cc1 (stereo not drawn) [Compound II-3] | 3.13 µg/mL | 25 µg/mL | 12.5 µg/mL |
| CCCCCc1ccc(NC(=O)C2=CCN(C)C(C(OC3OC(CN)C(O)C3O)C3OC(n4ccc(=O)[nH]c4=O)C(O)C3O)C(=O)N2C)cc1 (stereo not drawn) [Compound II-5] | 0.2 µg/mL | 3.13 µg/mL | 3.13 µg/mL |
| CCCCCCc1ccc(NC(=O)C2=CCN(C)C(C(OC3OC(CN)C(O)C3O)C3OC(n4ccc(=O)[nH]c4=O)C(O)C3O)C(=O)N2C)cc1 (stereo not drawn) [Compound II-6] | 0.39 µg/mL | 1.56 µg/mL | 0.78 µg/mL |
| CCCCCCCc1ccc(NC(=O)C2=CCN(C)C(C(OC3OC(CN)C(O)C3O)C3OC(n4ccc(=O)[nH]c4=O)C(O)C3O)C(=O)N2C)cc1 (stereo not drawn) [Compound II-7] | <0.20 µg/mL | 1.56 µg/mL | <0.20 µg/mL |
| CCCCCCCCCc1ccc(NC(=O)C2=CCN(C)C(C(OC3OC(CN)C(O)C3O)C3OC(n4ccc(=O)[nH]c4=O)C(O)C3O)C(=O)N2C)cc1 (stereo not drawn) [Compound II-9] | 0.39 µg/mL | 3.13 µg/mL | 1.56 µg/mL |
| CCCCCCCCCCc1ccc(NC(=O)C2=CCN(C)C(C(OC3OC(CN)C(O)C3O)C3OC(n4ccc(=O)[nH]c4=O)C(O)C3O)C(=O)N2C)cc1 (stereo not drawn) [Compound II-10] | <0.20 µg/mL | 3.13 µg/mL | 3.13 µg/mL |
| CCCCCCCCCCCc1ccc(NC(=O)C2=CCN(C)C(C(OC3OC(CN)C(O)C3O)C3OC(n4ccc(=O)[nH]c4=O)C(O)C3O)C(=O)N2C)cc1 (stereo not drawn) [Compound II-11] | 0.39 µg/mL | 3.13 µg/mL | 3.13 µg/mL |
| CCCCCCCCCCCCc1ccc(NC(=O)C2=CCN(C)C(C(OC3OC(CN)C(O)C3O)C3OC(n4ccc(=O)[nH]c4=O)C(O)C3O)C(=O)N2C)cc1 (stereo not drawn) [Compound II-12] | 0.78 µg/mL | 3.13 µg/mL | 6.25 µg/mL |
| CCCCCCCCCCCCCc1ccc(NC(=O)C2=CCN(C)C(C(OC3OC(CN)C(O)C3O)C3OC(n4ccc(=O)[nH]c4=O)C(O)C3O)C(=O)N2C)cc1 (stereo not drawn) [Compound II-13] | 1.56 µg/mL | 3.13 µg/mL | 12.5 µg/mL |
| CCCCCCCCCCCCCCc1ccc(NC(=O)C2=CCN(C)C(C(OC3OC(CN)C(O)C3O)C3OC(n4ccc(=O)[nH]c4=O)C(O)C3O)C(=O)N2C)cc1 (stereo not drawn) [Compound II-14] | 3.13 µg/mL | 6.25 µg/mL | 25 µg/mL |
| CCCCCCOc1ccc(NC(=O)C2=CCN(C)C(C(OC3OC(CN)C(O)C3O)C3OC(n4ccc(=O)[nH]c4=O)C(O)C3O)C(=O)N2C)cc1 (stereo not drawn) [Compound II-20] | 0.39 µg/mL | 6.25 µg/mL | 1.56 µg/mL |
| CCCCCCCCCOc1ccc(NC(=O)C2=CCN(C)C(C(OC3OC(CN)C(O)C3O)C3OC(n4ccc(=O)[nH]c4=O)C(O)C3O)C(=O)N2C)cc1 (stereo not drawn) [Compound II-23] | 0.39 µg/mL | 1.56 µg/mL | 0.78 µg/mL |
| CCCCCCNC(=O)C1=CCN(C)C(C(OC2OC(CN)C(O)C2O)C2OC(n3ccc(=O)[nH]c3=O)C(O)C2O)C(=O)N1C (stereo not drawn) [Compound II-A] | 3.13 µg/mL | >100 µg/mL | 100 µg/mL |
| CCCCCCCNC(=O)C1=CCN(C)C(C(OC2OC(CN)C(O)C2O)C2OC(n3ccc(=O)[nH]c3=O)C(O)C2O)C(=O)N1C (stereo not drawn) [Compound II-B] | 1.56 µg/mL | 25 µg/mL | 25 µg/mL |
| CCCCCCCCNC(=O)C1=CCN(C)C(C(OC2OC(CN)C(O)C2O)C2OC(n3ccc(=O)[nH]c3=O)C(O)C2O)C(=O)N1C (stereo not drawn) [Compound II-C] | 0.78 µg/mL | 6.25 µg/mL | 12.5 µg/mL |
| CCCCCCCCCNC(=O)C1=CCN(C)C(C(OC2OC(CN)C(O)C2O)C2OC(n3ccc(=O)[nH]c3=O)C(O)C2O)C(=O)N1C (stereo not drawn) [Compound II-D] | 0.39 µg/mL | 6.25 µg/mL | 3.13 µg/mL |
| CCCCCCCCCCNC(=O)C1=CCN(C)C(C(OC2OC(CN)C(O)C2O)C2OC(n3ccc(=O)[nH]c3=O)C(O)C2O)C(=O)N1C (stereo not drawn) [Compound II-E] | 0.39 µg/mL | 25 µg/mL | 0.78 µg/mL |
| CCCCCCCCCCCNC(=O)C1=CCN(C)C(C(OC2OC(CN)C(O)C2O)C2OC(n3ccc(=O)[nH]c3=O)C(O)C2O)C(=O)N1C (stereo not drawn) [Compound II-F] | 0.39 µg/mL | 1.56 µg/mL | 0.39 µg/mL |
| CCCCCCCCCCCCNC(=O)C1=CCN(C)C(C(OC2OC(CNC(=O)OC(C)(C)C)C(O)C2O)C2OC(n3ccc(=O)[nH]c3=O)C(O)C2O)C(=O)N1C (stereo not drawn) [Compound II-G-N-Boc] | 50 µg/mL | 50 µg/mL | 50 µg/mL |
| CCCCCCCCCCCCNC(=O)C1=CCN(C)C(C(OC2OC(CN)C(O)C2O)C2OC(n3ccc(=O)[nH]c3=O)C(O)C2O)C(=O)N1C (stereo not drawn) [Compound II-G] | 0.39 µg/mL | 3.13 µg/mL | 0.39 µg/mL |
| CCCCCCCCCCCCCNC(=O)C1=CCN(C)C(C(OC2OC(CNC(=O)OC(C)(C)C)C(O)C2O)C2OC(n3ccc(=O)[nH]c3=O)C(O)C2O)C(=O)N1C (stereo not drawn) [Compound II-H-N-Boc] | 12.5 µg/mL | 25 µg/mL | 25 µg/mL |
